Our source for the IC50 values is patent US12503438B2, “Compounds for the treatment of kinase-dependent disorders” (Exelixis, Inc., priority 2019, dated 2025).

The target of one assay is T1, Human Axl (Homo sapiens, UniProt P30530, Q764R).
T1 construct: Human Axl (residues H473-A894 with Q764R, 161 nM); purchased Eurofins Pharma Discovery Services UK Limited (KinaseProfiler service)
T1 sequence (P30530 473-894 Q764R): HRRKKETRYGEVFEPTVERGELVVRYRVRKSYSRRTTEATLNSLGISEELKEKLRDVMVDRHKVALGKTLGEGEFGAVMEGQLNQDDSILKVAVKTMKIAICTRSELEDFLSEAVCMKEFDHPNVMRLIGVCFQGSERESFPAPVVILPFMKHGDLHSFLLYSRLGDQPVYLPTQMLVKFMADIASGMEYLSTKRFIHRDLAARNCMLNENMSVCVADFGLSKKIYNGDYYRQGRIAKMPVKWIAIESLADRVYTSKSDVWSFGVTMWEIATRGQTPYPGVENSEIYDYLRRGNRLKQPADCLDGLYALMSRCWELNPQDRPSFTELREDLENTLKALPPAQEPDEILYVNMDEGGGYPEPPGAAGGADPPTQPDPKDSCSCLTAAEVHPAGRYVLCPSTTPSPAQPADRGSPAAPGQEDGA
Kind of assay: Human AXL kinase assay (33P-phosphoryl transfer radiometric, KinaseProfiler). To be noted: biochemical activity; 10 μM ATP. The method, then: (§1) Kinase activity and compound inhibition were investigated using the ^33P-Phosphoryl transfer radiometric kinase assay, performed using the KinaseProfiler™ service of Eurofins Pharma Discovery Services UK Limited. Dose-response experiments were performed using nine compound concentrations in a 96-well microtiter plate. For each assay, all compounds were prepared to a 50× final assay concentration (50 μM) in 100% DMSO, then diluted in a half-log series, with the final top concentration at 1 μM. This working stock of the compound was added to the assay well as the first component in the reaction, followed by the remaining components as detailed in the following assay protocols below. The positive control wells (100% kinase activity) contain all components of the reaction including 2% DMSO (control for solvent effects), except the compound of interest. Blank wells contain all components of the reaction, with the reference inhibitor, staurosporine. This reference compound was used to abolish kinase activity and generated the 0% kinase activity base-line. IC50 values were calculated by nonlinear regression analysis using the sigmoidal dose-response (variable slope) curve fit on XLFit version 5.3 (ID Business Solutions).
(§2) Human Axl (residues H473-A894 with Q764R, 161 nM) was incubated with 8 mM MOPS pH 7.0, 0.2 mM EDTA, 250 μM KKSRGDYMTMQIG, 10 mM magnesium acetate, and 10 μM [y-^33P-ATP]. The reaction was initiated by the addition of the Mg/ATP mix. After incubation for 40 minutes at room temperature, the reaction was stopped by the addition of phosphoric acid to a concentration of 0.5%. A reaction aliquot of 10 μL was then spotted onto a P30 filtermat and washed four times for 4 minutes in 0.425% phosphoric acid and once in methanol prior to drying and scintillation counting. Incorporated ^33P was measured using the Wallac Microbeta scintillation counter (Perkin Elmer).

The target in the next assay is KDR (Homo sapiens, UniProt P35968). Kind of assay: Human KDR kinase assay (33P-phosphoryl transfer radiometric, KinaseProfiler). Further details: Human KDR (residues K790-V1356, 55 nM); purchased Eurofins Pharma Discovery Services UK Limited (KinaseProfiler service). To be noted: biochemical activity; 10 μM ATP. The method, then: as §1
KDR, sequence (P35968 790-1356): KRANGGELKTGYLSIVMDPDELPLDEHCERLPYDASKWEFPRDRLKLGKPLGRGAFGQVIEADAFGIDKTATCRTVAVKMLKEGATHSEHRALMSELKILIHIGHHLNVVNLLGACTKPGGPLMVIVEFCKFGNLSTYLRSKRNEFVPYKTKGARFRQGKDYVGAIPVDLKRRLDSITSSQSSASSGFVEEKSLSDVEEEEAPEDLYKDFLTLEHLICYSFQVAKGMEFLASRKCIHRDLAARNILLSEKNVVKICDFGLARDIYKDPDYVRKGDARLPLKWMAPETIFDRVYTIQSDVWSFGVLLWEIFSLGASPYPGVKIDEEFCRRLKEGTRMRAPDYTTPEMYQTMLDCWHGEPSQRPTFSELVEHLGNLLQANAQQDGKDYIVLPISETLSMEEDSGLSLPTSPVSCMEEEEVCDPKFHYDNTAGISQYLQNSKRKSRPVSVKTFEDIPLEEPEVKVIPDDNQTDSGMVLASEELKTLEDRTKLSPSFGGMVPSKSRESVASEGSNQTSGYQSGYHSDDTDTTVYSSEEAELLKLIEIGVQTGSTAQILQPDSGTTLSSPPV
as §2, with “KDR” for “Axl”, “K790-V1356, 55” for “H473-A894 with Q764R, 161”, “0.33 mg/mL myelin basic protein,” for “250 μM KKSRGDYMTMQIG,”, “[γ-^33P-ATP].” for “[y-^33P-ATP].”

Turning to `O=C(Nc1ccc(F)cc1)C1(C(=O)Nc2ccc(Oc3ccnc4cc(-c5cnc[nH]5)ccc34)cc2)CC1` [Compound 72, 1-N′-(4-Fluorophenyl)-1-N-[4-[7-(1H-imidazol-5-yl)quinolin-4-yl]oxyphenyl]cyclopropane-1,1-dicarboxamide], the figures for the IC50 at Human Axl and at KDR were no more than 0.01 µM and 0.01 to 0.1 µM, respectively.
The matching figures for `O=C(Nc1ccc(F)cc1)C1(C(=O)Nc2ccc(Oc3ccnc4cc(-c5ccn(C(F)F)n5)ccc34)cc2)CC1` [Compound 84, 1-N-[4-[7-[1-(Difluoromethyl)pyrazol-3-yl]quinolin-4-yl]oxyphenyl]-1-N′-(4-fluorophenyl)cyclopropane-1,1-dicarboxamide]: 0.01 to 0.1 µM and 0.01 to 0.1 µM.
The matching figures for `O=C(Nc1ccc(F)cc1)C1(C(=O)Nc2ccc(Oc3ccnc4cc(-c5cnn(C6COC6)c5)ccc34)cc2)CC1` [Compound 24, 1-N′-(4-Fluorophenyl)-1-N-[4-[7-[1-(oxetan-3-yl)pyrazol-4-yl]quinolin-4-yl]oxyphenyl]cyclopropane-1,1-dicarboxamide]: no more than 0.01 µM and 0.01 to 0.1 µM.
Consider `Cn1cc(-c2ccc3c(Oc4ccc(NC(=O)C5(C(=O)N6CCc7cc(F)ccc76)CC5)cc4)ccnc3c2)cn1` [Compound 81, 1-(5-Fluoro-2,3-dihydroindole-1-carbonyl)-N-[4-[7-(1-methylpyrazol-4-yl)quinolin-4-yl]oxyphenyl]cyclopropane-1-carboxamide], for which the IC50 on Human Axl is no more than 0.01 µM; against KDR, 0.01 to 0.1 µM.
In the case of `O=C(Nc1ccc(F)cc1)C1(C(=O)Nc2ccc(Oc3ccnc4cc(-c5cnn(CC(F)F)c5)ccc34)cc2)CC1` [Compound 15, 1-N-[4-[7-[1-(2,2-Difluoroethyl)pyrazol-4-yl]quinolin-4-yl]oxyphenyl]-1-N′-(4-fluorophenyl)cyclopropane-1,1-dicarboxamide], the IC50 was no more than 0.01 µM against Human Axl and 0.01 to 0.1 µM at KDR.
Regarding `Cn1nccc1-c1ccc2c(Oc3ccc(NC(=O)C4(C(=O)Nc5ccc(F)cc5)CC4)cc3)ccnc2c1` [Compound 54, 1-N′-(4-Fluorophenyl)-1-N-[4-[7-(2-methylpyrazol-3-yl)quinolin-4-yl]oxyphenyl]cyclopropane-1,1-dicarboxamide], the IC50 at Human Axl and against KDR was 0.01 to 0.1 µM in each case.
Turning to `O=C(Nc1ccc(F)cc1)C1(C(=O)Nc2ccc(Oc3ccnc4cc(-c5cnn(C6CCNCC6)c5)ccc34)cc2)CC1` [Compound 60, 1-N′-(4-Fluorophenyl)-1-N-[4-[7-(1-piperidin-4-ylpyrazol-4-yl)quinolin-4-yl]oxyphenyl]cyclopropane-1,1-dicarboxamide], the IC50 at Human Axl was no more than 0.01 µM; at KDR, 0.01 to 0.1 µM.
As to `Cn1ncc(-c2ccc3c(Oc4ccc(NC(=O)C5(C(=O)Nc6ccc(F)cc6)CC5)cc4)ccnc3c2)n1` [Compound 86, 1-N′-(4-Fluorophenyl)-1-N-[4-[7-(2-methyltriazol-4-yl)quinolin-4-yl]oxyphenyl]cyclopropane-1,1-dicarboxamide], the IC50 against Human Axl is no more than 0.01 µM; against KDR it was 0.01 to 0.1 µM.

What is called IC50 is the concentration at which inhibition is half-maximal. High values mean a need for much substance, low ones inhibition by little substance.
